Test results reported in patent publication US20080269162A1, “Novel Medicaments for Anti-Retroviral Treatments” (priority 2006, published 2008).
Values joined by “and” are separate entries in the source; they are usually repeats but may differ in a detail not shown here. Equal values may be shown once.

How the values were obtained:
NDK virus = assay: Number of syncitia in MT4 cell culture infected by NDK virus; format: cell-based, HIV; design: key to Number of Syncitia in the Culture (wells), J3 / Number of Syncitia in the Culture (wells), J4 / Number of Syncitia in the Culture (wells), J5 / Number of Syncitia in the Culture (wells), J6: the absence of syncitia is indicated by a minus (−) sign; the (+), +, ++, ++T signs indicate an increasing number of syncitia in each well; the (+), +, ++, ++T signs indicate an increasing number of syncitia in each well; the (+), +, ++, ++T signs indicate an increasing number of syncitia in each well; the (+), +, ++, ++T signs indicate an increasing number of syncitia in each well; The indication “T” indicates the death of the cells; details: 10 μg/mL; for Number of Syncitia in the Culture (wells), J3: day 3; for Number of Syncitia in the Culture (wells), J4: day 4; for Number of Syncitia in the Culture (wells), J5: day 5; for Number of Syncitia in the Culture (wells), J6: day 6
Protocol: Then infection of the cells was carried out by adding to each well, with the exception of those wells being used as control cells, 50 μL of previously titrated virus dilution.
After an additional hour of incubation, the plate was centrifuged and the supernatant containing the residual virus was discarded.
After 3 days of culture, the cells were diluted to half and the syncitia were observed using the inverse microscope from day 3 to day 7 after having been placed in suspension.
In the third case, the MT4 cell culture was preincubated for one hour at 37° C., then the cells were infected, the whole was subjected to incubation for one hour at 37° C., then to centrifugation with the elimination of the supernatant containing the virus that had not penetrated into the cells.
In each of the four types of experiments that have just been described, and as previously indicated, the cells were diluted to half after three days of culture and then the syncitia were observed using the inverted microscope from day 3 to day 7.
In the experiments described in greater detail hereinafter, the absence of syncitia is indicated by a minus (−) sign and the (+), +, ++, ++T signs indicate an increasing number of syncitia in each well.
The indication “T” indicates the death of the cells.

RT of the UG92029 virus = assay: Direct inhibitory action on RT of the UG92029 virus; format: biochemical, HIV; details: viral concentration corresponding to RT activity of 220,000 dpm, FIG. 7
Source text: (§1) In order to perform these measurements, the method described in detail hereinbefore was followed (Example 2).

RT of the PIC CH virus = assay: Direct inhibitory action on RT of the PIC CH virus; format: biochemical, HIV; details: viral concentration corresponding to RT activity of 105,000 dpm, FIG. 8
Source text: as §1

RT of the NDK virus = molecular target: T1, RT of the NDK virus (Human immunodeficiency virus type 1 group M subtype D, UniProt P18802); assay: Direct inhibitory action on RT of the NDK virus; format: biochemical, HIV; details: viral concentration corresponding to RT activity of 81,000 dpm, FIG. 9
T1 construct: host or cells: virus preparation (native virion RT)
Source text: as §1

CEM cells = assay: In vitro cytotoxicity, number of CEM cells
[1] = Continuous, before, during and after infection

Substance: Dextran sulphate
- Number of Syncitia in the Culture (wells), J3 (NDK virus; After infection): −
- Number of Syncitia in the Culture (wells), J4 (NDK virus; After infection): − and +
- Number of Syncitia in the Culture (wells), J5 (NDK virus; After infection): − and ++
- Number of Syncitia in the Culture (wells), J6 (NDK virus; After infection): − and T
- Number of Syncitia in the Culture (wells), J3 (NDK virus; Before infection): −
- Number of Syncitia in the Culture (wells), J4 (NDK virus; Before infection): −
- Number of Syncitia in the Culture (wells), J5 (NDK virus; Before infection): −
- Number of Syncitia in the Culture (wells), J6 (NDK virus; Before infection): −
- Number of Syncitia in the Culture (wells), J3 (NDK virus; [1]): −
- Number of Syncitia in the Culture (wells), J4 (NDK virus; [1]): +
- Number of Syncitia in the Culture (wells), J5 (NDK virus; [1]): ++
- Number of Syncitia in the Culture (wells), J6 (NDK virus; [1]): T
- Number of Syncitia in the Culture (wells), J3 (NDK virus; During infection): −
- Number of Syncitia in the Culture (wells), J4 (NDK virus; During infection): − and (+)
- Number of Syncitia in the Culture (wells), J5 (NDK virus; During infection): − and ++
- Number of Syncitia in the Culture (wells), J6 (NDK virus; During infection): ++ and T
- wells inhibited (NDK virus; cells treated before viral infection): 2 wells out of 2 inhibited
- inhibition of RT (RT of the UG92029 virus; 2.5 μg/mL): 6%
- inhibition of RT (RT of the UG92029 virus; 3 μg/mL): 8%
- inhibition of RT (RT of the PIC CH virus; 0.6 μg/mL): does not produce any inhibition at all
- inhibition of RT (RT of the PIC CH virus; 0.8 μg/mL): still does not induce any inhibition
- inhibition of RT (RT of the NDK virus; 0.6 μg/mL): 11%
- inhibition of RT (RT of the NDK virus; 0.8 μg/mL): 18%
- Number of CEM cells (CEM cells; Day 1, 125 μg/mL): 500000 mL⁻¹ and 900000 mL⁻¹
- Number of CEM cells (CEM cells; Day 1, 250 μg/mL): 500000 mL⁻¹ and 900000 mL⁻¹
- Number of CEM cells (CEM cells; Day 1, 1000 μg/mL): 800000 mL⁻¹ and 500000 mL⁻¹
- Number of CEM cells (CEM cells; Day 2, 125 μg/mL): 1.5e+06 mL⁻¹ and 1e+06 mL⁻¹
- Number of CEM cells (CEM cells; Day 2, 250 μg/mL): 1.3e+06 mL⁻¹ and 1.4e+06 mL⁻¹
- Number of CEM cells (CEM cells; Day 2, 500 μg/mL): 1.3e+06 mL⁻¹ and 1.7e+06 mL⁻¹
- Number of CEM cells (CEM cells; Day 2, 1000 μg/mL): 1.3e+06 mL⁻¹ and 1.7e+06 mL⁻¹
- Number of CEM cells (CEM cells; Day 3, 125 μg/mL): 2.3e+06 mL⁻¹ and 2.1e+06 mL⁻¹
- Number of CEM cells (CEM cells; Day 3, 250 μg/mL): 1.9e+06 mL⁻¹
- Number of CEM cells (CEM cells; Day 3, 500 μg/mL): 2.1e+06 mL⁻¹ and 1.5e+06 mL⁻¹
- Number of CEM cells (CEM cells; Day 3, 1000 μg/mL): 2e+06 mL⁻¹ and 2.7e+06 mL⁻¹
